The test deals with T1, RORγ receptor (Homo sapiens, UniProt P51449).
T1 construct: Jurkat pEx/Gal/hRORγ CLBD/HYG pG51uc/blast; expressed in transfected cells
T1 sequence (P51449 269-508 limits assumed): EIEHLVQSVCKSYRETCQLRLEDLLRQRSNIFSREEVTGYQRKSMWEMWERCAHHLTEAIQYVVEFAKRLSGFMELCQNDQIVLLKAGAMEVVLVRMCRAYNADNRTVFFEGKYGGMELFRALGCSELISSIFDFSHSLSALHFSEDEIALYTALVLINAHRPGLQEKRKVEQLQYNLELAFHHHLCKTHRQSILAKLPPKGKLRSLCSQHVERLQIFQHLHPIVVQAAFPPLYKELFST
Kind of test: General RORγ Gal4 reporter assay (inverse agonist activity, inhibition of luminescence). It is filed as cell-based. The settings on record: Gal4-luciferase reporter in Jurkat cells stably over-expressing hRORγ LBD; overnight incubation; 40 μM to 0.67 nM. The method, then: General RORγ Gal4 Reporter Assay Inverse agonist activity of potential ligands to RORγ was measured by inhibition of luminescence in a Gal4-luciferase reporter assay in Jurkat cells.
The following day, cells were lysed with 10 μL of Steady-Glo Luciferase Assay System (Promega Cat. No. EZ550), and analyzed immediately. IC50 values were determined.
Background: In a reporter assay the amount or activity of a reporter protein is the signal.

Counter-ions that a name gives are not always drawn.

The results in this text go back to patent US10934286B2, “Heterocyclic sulfones as ROR gamma modulators” (BRISTOL-MYERS SQUIBB COMPANY, priority 2016, dated 2021).

As a reminder, the IC50 is the concentration at which inhibition is half-maximal. Low values mean greater potency in that assay, high ones weaker potency in that assay. Compound `C[C@H]1C[C@H](C(=O)O)CC[C@H]1C(=O)N1CCC2(S(=O)(=O)c3ccc(F)cc3)c3ncc(C(F)(C(F)(F)F)C(F)(F)F)cc3CCC12` (single isomer, unassigned) [Example 23, trifluoroacetate] gave an IC50 of 0.318 µM.

`O=C1N[C@H](C(=O)N2CCC3(S(=O)(=O)c4cccc(F)c4)c4ccc(C(F)(C(F)(F)F)C(F)(F)F)nc4CCC23)[C@H]2C[C@@H]12` (single isomer, unassigned) [Example 34, trifluoroacetate]: the IC50 amounted to 0.062 µM.

`O=C([C@@H]1C[C@@H](F)C(=O)N1CCO)N1CCC2(S(=O)(=O)c3ccc(F)cc3)c3ncc(C(F)(C(F)(F)F)C(F)(F)F)cc3CCC12` (single isomer, unassigned) [Example 36] came in with a concentration for half-maximal inhibition (IC50) of 0.11 µM.

`N#CCCN1C(=O)CC[C@H]1C(=O)N1CCC2(S(=O)(=O)c3ccc(F)cc3)c3cnc(OCc4ccccc4)cc3CCC12` (single isomer, unassigned) [Example 38] came in with an IC50 of 4.25 µM.

`N#CCCN1C(=O)CC[C@H]1C(=O)N1CCC2(S(=O)(=O)c3ccc(F)cc3)c3ccc(OCc4c(Cl)cccc4Cl)nc3CCC12` (single isomer, unassigned) [Example 39] had an IC50 of 0.015 µM.

The compound `N#CCCN1C(=O)CC[C@H]1C(=O)N1CCC2(S(=O)(=O)c3ccc(F)cc3)c3ccc(C(F)(C(F)(F)F)C(F)(F)F)nc3CCC12` (single isomer, unassigned) [Example 42] displayed an IC50 of 0.043 µM.

In the case of `CC(C)(O)CN1C(=O)[C@H](F)C[C@H]1C(=O)N1CCC2(S(=O)(=O)c3ccc(F)cc3)c3ccc(C(F)(C(F)(F)F)C(F)(F)F)nc3CCC12` (single isomer, unassigned) [Example 43], the IC50 stood at 0.031 µM.

For `CC(C)(O)CN1C(=O)[C@H](F)C[C@@H]1C(=O)N1CCC2(S(=O)(=O)c3ccc(F)cc3)c3ccc(C(F)(C(F)(F)F)C(F)(F)F)nc3CCC12` (single isomer, unassigned) [Example 44], the IC50 is 0.168 µM.

For the compound `CC(C)(O)CN1C(=O)[C@@H]2C[C@@H]2[C@H]1C(=O)N1CCC2(S(=O)(=O)c3cccc(F)c3)c3cnc(C(F)(C(F)(F)F)C(F)(F)F)cc3CCC12` (single isomer, unassigned) [Example 51], the IC50 was determined as 0.022 µM.

In the case of `CC(C)(O)CN1C(=O)CCN1C(=O)N1CCC2(S(=O)(=O)c3ccc(F)cc3)c3ccc(C(F)(C(F)(F)F)C(F)(F)F)nc3CCC12` (single isomer, unassigned) [Example 54, 1-(9b-((4-fluorophenyl)sulfonyl)-7-(perfluoropropan-2-yl)-2,3,3a,4,5,9b-hexahydro-1H-pyrrolo[3,2-f]quinoline-3-carbonyl)-2-(2-hydroxy-2-methylpropyl)pyrazolidin-3-one], the half-maximal inhibitory concentration (IC50) was determined as 0.016 µM.

The compound `C[C@H]1C[C@H](C(N)=O)CC[C@H]1C(=O)N1CCC2(S(=O)(=O)c3ccc(F)cc3)c3ncc(C(F)(C(F)(F)F)C(F)(F)F)cc3CCC12` (single isomer, unassigned) [Example 59] came in with an IC50 of 0.594 µM.

With `O=C(N1CCC2(S(=O)(=O)c3ccccc3)c3ccc(OCc4c(Cl)cccc4Cl)nc3CCC12)C(F)(F)F` (single isomer, unassigned) [Example 61], the IC50 amounted to 0.802 µM.

`O=C(N1CCC2(S(=O)(=O)c3ccccc3)c3ccc(OCc4c(Cl)cccc4Cl)nc3CCC12)C(F)(F)F` (single isomer, unassigned) [Example 62] registered an IC50 of 2.44 µM.

Compound `[2H]C([2H])([2H])N1C(=O)[C@H](F)C[C@H]1C(=O)N1CCC2(S(=O)(=O)c3ccc(F)cc3)c3ncc(C(F)(C(F)(F)F)C(F)(F)F)cc3CCC12` (some centres unmarked) [Example 2] registered an IC50 of 0.069 µM.

For `O=C([C@@H]1CCC(=O)N1Cc1ccc(F)cc1)N1CCC2(S(=O)(=O)c3ccc(F)cc3)c3ncc(C(F)(C(F)(F)F)C(F)(F)F)cc3CCC12` (some centres unmarked) [Example 3], the IC50 came to 0.061 µM.

`O=C(O)[C@H]1CC[C@H](C(=O)N2CCC3(S(=O)(=O)c4ccc(F)cc4)c4ncc(C(F)(C(F)(F)F)C(F)(F)F)cc4CCC23)CC1` (some centres unmarked) [Example 4] showed an IC50 of 0.161 µM.

Regarding `NC(=O)[C@H]1CC[C@H](C(=O)N2CCC3(S(=O)(=O)c4ccc(F)cc4)c4ncc(C(F)(C(F)(F)F)C(F)(F)F)cc4CCC23)CC1` (some centres unmarked) [Example 5], the IC50 was found to be 0.078 µM.

As for `O=C(O)C12CCC(C(=O)N3CCC4(S(=O)(=O)c5ccc(F)cc5)c5ncc(C(F)(C(F)(F)F)C(F)(F)F)cc5CCC34)(CC1)CC2` (centres unmarked) [Example 6], the IC50 was 0.054 µM.

Take `NC(=O)C12CCC(C(=O)N3CCC4(S(=O)(=O)c5ccc(F)cc5)c5ncc(C(F)(C(F)(F)F)C(F)(F)F)cc5CCC34)(CC1)CC2` (centres unmarked) [Example 7]: the IC50 amounted to 0.083 µM.

`O=C(C1CCS(=O)(=O)CC1)N1CCC2(S(=O)(=O)c3ccc(F)cc3)c3ncc(C(F)(C(F)(F)F)C(F)(F)F)cc3CCC12` (centres unmarked) [Example 8]: the IC50 came out at 0.091 µM.

`O=C(O)C1CC2(C1)CC(C(=O)N1CCC3(S(=O)(=O)c4ccc(F)cc4)c4ncc(C(F)(C(F)(F)F)C(F)(F)F)cc4CCC13)C2` (centres unmarked) [Example 9] showed an IC50 of 0.087 µM.

In turn, `O=C(CC1(O)CCS(=O)(=O)C1)N1CCC2(S(=O)(=O)c3ccc(F)cc3)c3ccc(C(F)(C(F)(F)F)C(F)(F)F)nc3CCC12` (centres unmarked) [Example 10] came in with an IC50 of 0.033 µM.

The compound `O=C(CC1(O)CCS(=O)(=O)C1)N1CCC2(S(=O)(=O)c3ccccc3)c3ccc(C(F)(C(F)(F)F)C(F)(F)F)nc3CCC12` (centres unmarked) [Example 11] displayed an IC50 of 0.021 µM.

`O=C(C1CCS(=O)(=O)CC1)N1CCC2(S(=O)(=O)c3ccccc3)c3ccc(C(F)(C(F)(F)F)C(F)(F)F)nc3CCC12` (centres unmarked) [Example 12]: the IC50 amounted to 0.009 µM.

Compound `N#CCCN1C(=O)CC[C@H]1C(=O)N1CCC2(S(=O)(=O)c3cccc(F)c3)c3cnc(C(F)(C(F)(F)F)C(F)(F)F)cc3CCC12` (some centres unmarked) [Example 14] displayed an IC50 of 0.004 µM.

`O=C(C1CCS(=O)(=O)CC1)N1CCC2(S(=O)(=O)c3cccc(F)c3)c3cnc(C(F)(C(F)(F)F)C(F)(F)F)cc3CCC12` (centres unmarked) [Example 15] displayed an IC50 of 0.008 µM.

As for `O=C(O)C12CCC(C(=O)N3CCC4(S(=O)(=O)c5ccccc5)c5ccc(C(F)(C(F)(F)F)C(F)(F)F)nc5CCC34)(CC1)CC2` (centres unmarked) [Example 16], the IC50 was determined as 0.006 µM.

The compound `CC(C)(O)C(=O)N1CCC2(S(=O)(=O)c3ccccc3)c3ccc(C(F)(C(F)(F)F)C(F)(F)F)nc3CCC12` (centres unmarked) [Example 17] showed an IC50 of 0.045 µM.

Turning to `CC(C)(O)CC(=O)N1CCC2(S(=O)(=O)c3ccccc3)c3ccc(C(F)(C(F)(F)F)C(F)(F)F)nc3CCC12` (centres unmarked) [Example 18], the IC50 is 0.03 µM.

Take `N#CCCN1C(=O)CC[C@H]1C(=O)N1CCC2(S(=O)(=O)c3ccccc3)c3ccc(C(F)(C(F)(F)F)C(F)(F)F)nc3CCC12` (some centres unmarked) [Example 19]: the IC50 stood at 0.013 µM.

On to `N#CCCN1C(=O)CC[C@H]1C(=O)N1CCC2(S(=O)(=O)c3cccc(F)c3)c3ccc(C(F)(C(F)(F)F)C(F)(F)F)nc3CCC12` (some centres unmarked) [Example 21], for which the IC50 was 0.011 µM.

Regarding `O=C(C1CCS(=O)(=O)CC1)N1CCC2(S(=O)(=O)c3cccc(F)c3)c3ccc(C(F)(C(F)(F)F)C(F)(F)F)nc3CCC12` (centres unmarked) [Example 22], the IC50 worked out at 0.009 µM.

For `O=C(O)[C@H]1CC[C@H](C(=O)N2CCC3(S(=O)(=O)c4cccc(F)c4)c4ccc(C(F)(C(F)(F)F)C(F)(F)F)nc4CCC23)CC1` (some centres unmarked) [Example 24], the IC50 came out at 0.015 µM.

`C[C@H]1C[C@H](C(=O)O)CC[C@H]1C(=O)N1CCC2(S(=O)(=O)c3cccc(F)c3)c3ccc(C(F)(C(F)(F)F)C(F)(F)F)nc3CCC12` (some centres unmarked) [Example 25] returned an IC50 of 0.012 µM.

In turn, `O=C(O)[C@H]1CC[C@H](C(=O)N2CCC3(S(=O)(=O)c4cccc(F)c4)c4cnc(C(F)(C(F)(F)F)C(F)(F)F)cc4CCC23)CC1` (some centres unmarked) [Example 26] came in with an IC50 of 0.013 µM.

`C[C@H]1C[C@H](C(=O)O)CC[C@H]1C(=O)N1CCC2(S(=O)(=O)c3cccc(F)c3)c3cnc(C(F)(C(F)(F)F)C(F)(F)F)cc3CCC12` (some centres unmarked) [Example 27]: the IC50 turned out to be 0.021 µM.

Compound `O=C(O)[C@H]1CC[C@H](C(=O)N2CCC3(S(=O)(=O)c4ccccc4)c4ccc(C(F)(C(F)(F)F)C(F)(F)F)nc4CCC23)CC1` (some centres unmarked) [Example 28] had an IC50 of 0.008 µM.

With `C[C@H]1C[C@H](C(=O)O)CC[C@H]1C(=O)N1CCC2(S(=O)(=O)c3ccccc3)c3ccc(C(F)(C(F)(F)F)C(F)(F)F)nc3CCC12` (some centres unmarked) [Example 29], the IC50 is 0.013 µM.

In the case of `C[C@H]1C[C@H](C(=O)O)CC[C@H]1C(=O)N1CCC2(S(=O)(=O)c3ccc(F)cc3)c3cnc(C(F)(C(F)(F)F)C(F)(F)F)cc3CCC12` (some centres unmarked) [Example 30], the IC50 was 0.051 µM.

The compound `C[C@H]1C[C@H](C(=O)O)CC[C@H]1C(=O)N1CCC2(S(=O)(=O)c3ccc(F)cc3)c3ccc(C(F)(C(F)(F)F)C(F)(F)F)nc3CCC12` (some centres unmarked) [Example 32] showed an IC50 of 0.005 µM.

`O=C(O)[C@H]1CC[C@H](C(=O)N2CCC3(S(=O)(=O)c4ccc(F)cc4)c4ccc(C(F)(C(F)(F)F)C(F)(F)F)nc4CCC23)CC1` (some centres unmarked) [Example 33]: the IC50 worked out at 0.008 µM.

The compound `O=C1N[C@H](C(=O)N2CCC3(S(=O)(=O)c4cccc(F)c4)c4cnc(C(F)(C(F)(F)F)C(F)(F)F)cc4CCC23)[C@H]2C[C@@H]12` (some centres unmarked) [Example 35] had an IC50 of 3.3 µM.

For the compound `CC(C)(CO)CN1C(=O)[C@H](F)C[C@H]1C(=O)N1CCC2(S(=O)(=O)c3cccc(F)c3)c3ccc(C(F)(C(F)(F)F)C(F)(F)F)nc3CCC12` (some centres unmarked) [Example 37], the IC50 was 0.009 µM.

In turn, `O=C(O)[C@H]1CC[C@H](C(=O)N2CCC3(S(=O)(=O)c4ccc(F)cc4)c4ccc(OCc5c(Cl)cccc5Cl)nc4CCC23)CC1` (some centres unmarked) [Example 40] had an IC50 of 0.012 µM.
